Assay: xn = mol fraction of the nth substance listed
Settings: 101 kPa, Liquid; for viscosity: Concentric cylinders viscometry; for mass density: Vibrating tube method

O=S1(=O)CCCC1 [sulfolane] + CC(C)O
Settings | mass density, 303.15 K [kg/m3] | mass density, 313.15 K [kg/m3] | mass density, 323.15 K [kg/m3] | mass density, 333.15 K [kg/m3] | mass density, 343.15 K [kg/m3] | viscosity, 303.15 K [mPa·s] | viscosity, 313.15 K [mPa·s] | viscosity, 323.15 K [mPa·s] | viscosity, 333.15 K [mPa·s] | viscosity, 343.15 K [mPa·s]
x1 = 0.075 | 823.6 | 814.6 | 805.3 | 795.5 | 785.2 | 1.62 | 1.27 | 1.01 | 0.81 | 0.66
x1 = 0.164 | 875.9 | 866.9 | 857.5 | 847.9 | 837.9 | 1.69 | 1.34 | 1.08 | 0.89 | 0.74
x1 = 0.25 | 924 | 914.8 | 905.4 | 896 | 886 | 1.85 | 1.48 | 1.2 | 1 | 0.84
x1 = 0.353 | 978.7 | 969.6 | 960.4 | 950.7 | 941.1 | 2.14 | 1.71 | 1.41 | 1.18 | 0.99
x1 = 0.437 | 1021.3 | 1012.1 | 1002.9 | 993.8 | 984.3 | 2.43 | 1.96 | 1.62 | 1.36 | 1.14
x1 = 0.536 | 1069.3 | 1060.2 | 1050.9 | 1041.6 | 1032.1 | 2.91 | 2.35 | 1.95 | 1.64 | 1.4
x1 = 0.656 | 1124.3 | 1115.3 | 1106.2 | 1097 | 1087.7 | 3.75 | 3.03 | 2.5 | 2.11 | 1.8
x1 = 0.768 | 1172.1 | 1163.1 | 1154.1 | 1145.1 | 1135.9 | 4.97 | 3.99 | 3.27 | 2.73 | 2.32
x1 = 0.88 | 1219.3 | 1210.4 | 1201.6 | 1192.6 | 1183.7 | 6.92 | 5.48 | 4.45 | 3.68 | 3.1
x1 = 1 | 1262.9 | 1254.1 | 1245.2 | 1236.6 | 1228.1 | 10.4 | 8.07 | 6.45 | 5.22 | 4.32

O=S1(=O)CCCC1 [sulfolane] + CCC(C)O
Settings | mass density, 303.15 K [kg/m3] | mass density, 313.15 K [kg/m3] | mass density, 323.15 K [kg/m3] | mass density, 333.15 K [kg/m3] | mass density, 343.15 K [kg/m3] | viscosity, 303.15 K [mPa·s] | viscosity, 313.15 K [mPa·s] | viscosity, 323.15 K [mPa·s] | viscosity, 333.15 K [mPa·s] | viscosity, 343.15 K [mPa·s]
x1 = 0.099 | 846.6 | 837.8 | 828.8 | 819.3 | 809.4 | 2.16 | 1.62 | 1.26 | 1 | 0.8
x1 = 0.198 | 894.1 | 885.2 | 876 | 866.7 | 857 | 2.17 | 1.67 | 1.33 | 1.08 | 0.89
x1 = 0.298 | 941.7 | 932.9 | 923.8 | 914.6 | 905 | 2.34 | 1.83 | 1.49 | 1.21 | 1.01
x1 = 0.38 | 980.6 | 971.7 | 962.6 | 953.3 | 943.9 | 2.56 | 2.01 | 1.63 | 1.35 | 1.14
x1 = 0.499 | 1036.4 | 1027.5 | 1018.4 | 1009.3 | 1000 | 2.98 | 2.37 | 1.93 | 1.61 | 1.37
x1 = 0.593 | 1079.6 | 1070.7 | 1061.8 | 1052.7 | 1043.5 | 3.46 | 2.77 | 2.27 | 1.89 | 1.62
x1 = 0.691 | 1125.1 | 1116.2 | 1107.2 | 1098.2 | 1089.2 | 4.19 | 3.36 | 2.76 | 2.31 | 1.97
x1 = 0.799 | 1173.9 | 1165.1 | 1156.2 | 1147.4 | 1138.5 | 5.41 | 4.32 | 3.53 | 2.94 | 2.49
x1 = 0.9 | 1219 | 1210.1 | 1201.4 | 1192.5 | 1183.7 | 7.23 | 5.72 | 4.63 | 3.82 | 3.21
x1 = 1 | 1262.9 | 1254.1 | 1245.2 | 1236.6 | 1228.1 | 10.4 | 8.07 | 6.45 | 5.22 | 4.32

O=S1(=O)CCCC1 [sulfolane] + OCCOCCO
Settings | mass density, 303.15 K [kg/m3] | mass density, 313.15 K [kg/m3] | mass density, 323.15 K [kg/m3] | mass density, 333.15 K [kg/m3] | mass density, 343.15 K [kg/m3] | viscosity, 303.15 K [mPa·s] | viscosity, 313.15 K [mPa·s] | viscosity, 323.15 K [mPa·s] | viscosity, 333.15 K [mPa·s] | viscosity, 343.15 K [mPa·s]
x1 = 0.097 | 1125 | 1117.6 | 1110.2 | 1102.7 | 1094.9 | 19.1 | 12.9 | 9.13 | 6.74 | 5.15
x1 = 0.198 | 1140 | 1132.5 | 1124.8 | 1117 | 1109.1 | 16.3 | 11.2 | 8.04 | 6.01 | 4.65
x1 = 0.319 | 1158.2 | 1150.3 | 1142.3 | 1134.2 | 1126.1 | 13.8 | 9.62 | 7.03 | 5.35 | 4.19
x1 = 0.414 | 1172.2 | 1164.2 | 1156.1 | 1147.8 | 1139.6 | 12.2 | 8.7 | 6.46 | 4.97 | 3.94
x1 = 0.499 | 1185.2 | 1176.9 | 1168.6 | 1160.3 | 1151.9 | 11.2 | 8.07 | 6.07 | 4.72 | 3.78
x1 = 0.614 | 1202.9 | 1194.5 | 1186 | 1177.5 | 1169 | 10.2 | 7.49 | 5.72 | 4.5 | 3.64
x1 = 0.698 | 1215.6 | 1207.1 | 1198.5 | 1190 | 1181.3 | 9.72 | 7.25 | 5.61 | 4.47 | 3.64
x1 = 0.789 | 1229.7 | 1221.1 | 1212.5 | 1203.8 | 1195.1 | 9.35 | 7.08 | 5.54 | 4.46 | 3.66
x1 = 0.887 | 1245 | 1236.3 | 1227.5 | 1218.8 | 1210.1 | 9.39 | 7.23 | 5.72 | 4.64 | 3.84
x1 = 1 | 1262.9 | 1254.1 | 1245.2 | 1236.6 | 1228.1 | 10.4 | 8.07 | 6.45 | 5.22 | 4.32

Source: the NIST ThermoML archive (doi:10.1021/je500153g)
